According to patent US12365651B2, “Use of pirfenidone and derivatives for modulation of B lymphocyte activity and organ protection from acute tissue damage” (Washington University, priority 2017, dated 2025):
Values joined by “and” are separate entries in the source; they are usually repeats but may differ in a detail not shown here. Equal values may be shown once.

Assays:
[1] = tested on: Peritoneal derived inflammatory cells; assay: In vitro immunomodulatory effect of tested PEG compounds (CD86 on CD19+ cells, LPS); assay type: cell-based, mouse; details: potency in molarity; toxicity by visual inspection and DAPI staining (FIG. 11D)
Experimental: Peritoneal derived inflammatory cells were collected on day for post intraperitoneal injection of Thyoglicollate. Cells were cultured for 24 h in baseline condition (control), in the presence of LPS 100 ng/ml (LPS) or in the presence of LPS 100 ng/ml and various concentrations of different forms of Pegylated Pirfenidone (named C2 and C3 in FIG. 11A and C4 to C6 in FIG. 11B)). After the 24 h in culture cells were collected and analyzed via flow cytometry to assess the expression of CD86 on CD19+ cells (B lymphocytes). […] FIG. 11C reports the molecular weights of the tested forms of PEGylated Pirfenidone and the molecular weight (MW) ration between the tested compound and Pirfenidone).

[2] = Plasma pharmacokinetics after IV or PO administration; assay type: in vivo, SD Rat
Experimental: Pirfenidone and Pegyonde-6 were administered at equimolar concentrations to rats IV or per os (PO) and serum concentrations measured at different time points to measure pharmacokinetic parameters. The drugs were solubilized in 5% Alcohol+20% PEG 300 in saline.

[3] = as above; assay type: in vivo; details: SD Rat, 96 mg/kg
[4] = SD Rat, IV 96 mg/kg, individual rats 4-6, 96 mg/kg
[5] = SD Rat, PO 96 mg/kg, individual rats 10-12, 96 mg/kg

## COCCOCCOCCOCCOCCOCc1ccc(-n2cc(C)ccc2=O)cc1 [PEG-Pirfenidone]
[1]
  relative potency to Pirfenidone and in vitro toxicity: superior to the other tested variants
[2]; SD Rat, IV 96 mg/kg
  AUC0-t, Mean: 34.197 µg·h/mL
  AUC0-∞, Mean: 34.229 µg·h/mL
  AUMC0-t, Mean: 18176 h*h*ng/mL
  AUMC0—∞, Mean: 18540 h*h*ng/mL
  CL(/F), Mean: 2.923 L/h/kg
  Cmax, Mean: 65.733 µg/mL
  MRTINF, Mean: 33.8 min
  T1/2, Mean: 79.8 min
  Tmax, Mean: 4.98 min
  Vss (/F), Mean: 1.7 L/kg
[2]; SD Rat, IV 96 mg/kg, 0.083 h
  Plasma concentrations of PEG-Pirfenidone, Mean: 65.733 µg/mL
[2]; SD Rat, IV 96 mg/kg, 0.25 h
  Plasma concentrations of PEG-Pirfenidone, Mean: 41.336 µg/mL
[2]; SD Rat, IV 96 mg/kg, 0.25 h, individual rats 4-6, 96 mg/kg
  Plasma concentrations of PEG-Pirfenidone: 27.605 µg/mL and 35.059 µg/mL and 61.343 µg/mL
[2]; SD Rat, IV 96 mg/kg, 0.5 h
  Plasma concentrations of PEG-Pirfenidone, Mean: 17.149 µg/mL
[2]; SD Rat, IV 96 mg/kg, 1 h
  Plasma concentrations of PEG-Pirfenidone, Mean: 6.09 µg/mL
[2]; SD Rat, IV 96 mg/kg, 1 h, individual rats 4-6, 96 mg/kg
  Plasma concentrations of PEG-Pirfenidone: 5.974 µg/mL and 6.543 µg/mL and 5.755 µg/mL
[2]; SD Rat, IV 96 mg/kg, 2 h
  Plasma concentrations of PEG-Pirfenidone, Mean: 1.533 µg/mL
[2]; SD Rat, IV 96 mg/kg, 2 h, individual rats 4-6, 96 mg/kg
  Plasma concentrations of PEG-Pirfenidone: 1.786 µg/mL and 2.091 µg/mL and 0.721 µg/mL
[2]; SD Rat, IV 96 mg/kg, 4 h
  Plasma concentrations of PEG-Pirfenidone, Mean: 0.183 µg/mL
[2]; SD Rat, IV 96 mg/kg, 4 h, individual rats 4-6, 96 mg/kg
  Plasma concentrations of PEG-Pirfenidone: 0.216 µg/mL and 0.156 µg/mL and 0.178 µg/mL
[2]; SD Rat, IV 96 mg/kg, 8 h
  Plasma concentrations of PEG-Pirfenidone, Mean: 0.0203 µg/mL
[2]; SD Rat, IV 96 mg/kg, 8 h, individual rats 4-6, 96 mg/kg
  Plasma concentrations of PEG-Pirfenidone: 0.0129 µg/mL and 0.0115 µg/mL and 0.0363 µg/mL
[2]; SD Rat, IV 96 mg/kg, 24 h
  Plasma concentrations of PEG-Pirfenidone, Mean: 0.00297 µg/mL
[2]; SD Rat, IV 96 mg/kg, 24 h, individual rats 4-6, 96 mg/kg
  Plasma concentrations of PEG-Pirfenidone: BLOQ (Below lower limit of quantification (1 ng/mL)) (2×) and 2.97 ng/ml
[2]; SD Rat, IV 96 mg/kg, individual rats 4-6
  Tmax: 4.98 min
[2]; [4]
  AUC0-t: 26.338 µg·h/mL and 32.96 µg·h/mL and 43.292 µg·h/mL
  AUC0-∞: 26.353 µg·h/mL and 32.968 µg·h/mL and 43.367 µg·h/mL
  AUMC0-t: 16980 h*h*ng/mL and 20439 h*h*ng/mL and 17108 h*h*ng/mL
  AUMC0—∞: 17118 h*h*ng/mL and 20640 h*h*ng/mL and 17863 h*h*ng/mL
  CL(/F): 3.643 L/h/kg and 2.912 L/h/kg and 2.214 L/h/kg
  Cmax: 44.227 µg/mL and 56.484 µg/mL and 96.487 µg/mL
  MRTINF: 39 min and 37.6 min and 24.7 min
  T1/2: 48.2 min and 106 min and 85.8 min
  Vss (/F): 2.366 L/kg and 1.823 L/kg and 0.912 L/kg
[2]; SD Rat, PO 96 mg/kg
  AUC0-t, Mean: 16.811 µg·h/mL
  AUC0-∞, Mean: 16.838 µg·h/mL
  AUMC0-t, Mean: 10264 h*h*ng/mL
  AUMC0—∞, Mean: 10527 h*h*ng/mL
  Cmax, Mean: 23.584 µg/mL
  MRTINF, Mean: 37.6 min
  T1/2, Mean: 70.8 min
  Tmax, Mean: 15 min
[2]; SD Rat, PO 96 mg/kg vs IV 96 mg/kg
  F %: 49.16%
[2]; SD Rat, PO 96 mg/kg, 0.25 h
  Plasma concentrations of PEG-Pirfenidone, Mean: 23.584 µg/mL
[2]; SD Rat, PO 96 mg/kg, 0.25 h, individual rats 10-12, 96 mg/kg
  Plasma concentrations of PEG-Pirfenidone: 8.298 µg/mL and 40.817 µg/mL and 21.638 µg/mL
[2]; SD Rat, PO 96 mg/kg, 0.5 h
  Plasma concentrations of PEG-Pirfenidone, Mean: 19.224 µg/mL
[2]; SD Rat, PO 96 mg/kg, 0.5 h, individual rats 10-12, 96 mg/kg
  Plasma concentrations of PEG-Pirfenidone: 3.977 µg/mL and 35.217 µg/mL and 18.477 µg/mL
[2]; SD Rat, PO 96 mg/kg, 1 h
  Plasma concentrations of PEG-Pirfenidone, Mean: 3.748 µg/mL
[2]; SD Rat, PO 96 mg/kg, 1 h, individual rats 10-12, 96 mg/kg
  Plasma concentrations of PEG-Pirfenidone: 1.157 µg/mL and 7.033 µg/mL and 3.053 µg/mL
[2]; SD Rat, PO 96 mg/kg, 2 h
  Plasma concentrations of PEG-Pirfenidone, Mean: 0.44 µg/mL
[2]; SD Rat, PO 96 mg/kg, 4 h
  Plasma concentrations of PEG-Pirfenidone, Mean: 0.069 µg/mL
[2]; SD Rat, PO 96 mg/kg, 4 h, individual rats 10-12, 96 mg/kg
  Plasma concentrations of PEG-Pirfenidone: 0.0284 µg/mL and 0.129 µg/mL and 0.0488 µg/mL
[2]; SD Rat, PO 96 mg/kg, 8 h
  Plasma concentrations of PEG-Pirfenidone, Mean: 0.014 µg/mL
[2]; SD Rat, PO 96 mg/kg, 8 h, individual rats 10-12, 96 mg/kg
  Plasma concentrations of PEG-Pirfenidone: 0.00309 µg/mL and 0.0334 µg/mL and 0.00616 µg/mL
[2]; SD Rat, PO 96 mg/kg, 24 h, individual rats 10-12
  Plasma concentrations of PEG-Pirfenidone: BLOQ (Below lower limit of quantification (1 ng/mL))
[2]; SD Rat, PO 96 mg/kg, individual rats 10-12
  Tmax: 15 min
[2]; [5]
  AUC0-t: 4.853 µg·h/mL and 30.468 µg·h/mL and 15.112 µg·h/mL
  AUC0-∞: 4.858 µg·h/mL and 30.533 µg·h/mL and 15.123 µg·h/mL
  AUMC0-t: 3178 h*h*ng/mL and 19172 h*h*ng/mL and 8441 h*h*ng/mL
  AUMC0—∞: 3221 h*h*ng/mL and 19815 h*h*ng/mL and 8544 h*h*ng/mL
  Cmax: 8.298 µg/mL and 40.817 µg/mL and 21.638 µg/mL
  MRTINF: 39.8 min and 38.9 min and 33.9 min
  T1/2: 60.6 min and 80.4 min and 71.4 min
[2]; rats, equimolar, after both IV and PO administration
  half-life compared with Pirfenidone: longer half-life than Pirfenidone
[3]; IV 96 mg/kg, 0.083 h, individual rats 4-6
  Plasma concentrations of PEG-Pirfenidone: 44.227 µg/mL and 56.484 µg/mL and 96.487 µg/mL
[3]; IV 96 mg/kg, 0.5 h, individual rats 4-6
  Plasma concentrations of PEG-Pirfenidone: 13.073 µg/mL and 18.584 µg/mL and 19.79 µg/mL
[3]; PO 96 mg/kg, 2 h, individual rats 10-12
  Plasma concentrations of PEG-Pirfenidone: 0.219 µg/mL and 0.885 µg/mL and 0.217 µg/mL
